From publication PMC4317639, “In Vitro Gender-Dependent Inhibition of Porcine Cytochrome P450 Activity by Selected Flavonoids and Phenolic Acids” (BioMed Research International, 2015)

Columns and labels:
porcine CYP1A = assay: Inhibition of CYP1A activity (7-ethoxyresorufin O-deethylation) in porcine hepatic microsomes; assay type: in vitro ADME, pig; conditions: for effect on CYP1A activity: 16 μM compound, hepatic microsomes from male and female pigs, 2 μM 7-ethoxyresorufin; for effect of a preincubation step on inhibition of CYP1A: 5 min preincubation with NADPH at 37°C, male and female pigs; for effect of a preincubation step on inhibition of CYP1A / Ki: inhibitor 16, 32, 128 μM; for Ki: 7-ethoxyresorufin 0.1-4 μM
Experimental: (§1) Microsomes were prepared with a calcium aggregation method using Tris-EDTA homogenization buffer. Experiments were performed using pools of microsomes consisting of microsomes from two individual pigs. The total microsomal protein concentration was analyzed the same day using a commercially available kit (Bio-Rad Laboratories Inc., Hercules, CA, USA) according to the manufacturer's instructions. Microsomes were diluted to a protein concentration of 10 mg/mL and stored at −80°C until analysis.
(§2) Specific CYP450 activities were determined by incubating microsomes (diluted in 0.5 M potassium phosphate buffer (pH 7.4)) and adding 0.5 mM NADPH together with one of the following selective substrates (specific CYP450 target given in parentheses): 2 μM 7-ethoxyresorufin (CYP1A), 200 μM coumarin (CYP2A), 10 μM 7-benzyloxy-4-trifluoromethylcoumarin (CYP3A), and 200 μM p-nitrophenol (CYP2E1). […] The corresponding metabolites were quantified by HPLC as previously described.
(§3) For quercetin, this concentration is approximately what can be found in liver of pigs fed a single dose of a quercetin enriched diet. The stock solutions of these compounds were prepared in methanol, and the final concentration of methanol was 0.1% in the incubation volumes. The same amount of methanol was added to the control incubations. Percentage inhibitions were calculated as differences between the activities in the control incubations (arbitrarily set to 100%) and in the presence of the specific compound.
(§4) For that microsomes were preincubated with the tested compound in the presence of NADPH for 5 min (CYP1A, CYP3A) or 15 min (CYP2E1) at 37°C before the addition of specific substrate. […] The incubation time and the amount of the microsomal protein were in the linear range for the rate of metabolite formation. All measurements were performed in duplicate.
(§5) Kinetic parameters (Michaelis-Menten constant K m, maximal velocity of the reaction V max, and dissociation constant for inhibitor binding K i) were estimated by fitting data to the Michaelis-Menten equation using GraphPad Prism (version 4.0 for Windows, GraphPad Software (San Diego, California, USA)). Visual inspection of the plots was used to estimate whether inhibition degree was affected by inclusion of the preincubation step.

porcine CYP3A = assay: Inhibition of CYP3A activity (7-benzyloxy-4-trifluoromethylcoumarin O-dealkylation) in porcine hepatic microsomes; assay type: in vitro ADME, pig; conditions: for effect on CYP3A activity: 16 μM compound, hepatic microsomes from male and female pigs, 10 μM BFC; for reversibility of CYP3A inhibition (effect of a preincubation step): 5 min preincubation with NADPH at 37°C, male and female pigs; for Ki: pig, inhibitor 16, 32, 128 μM, BFC 0.1-150 μM
Experimental: as §1, §2, §3, §4, §5

porcine CYP2E1 = porcine CYP2E1 (Sus scrofa, UniProt P79383); assay: Inhibition of CYP2E1 activity (p-nitrophenol hydroxylation) in porcine hepatic microsomes; assay type: in vitro ADME, pig; conditions: for effect on CYP2E1 activity: 16 μM compound
porcine CYP2E1, sequence (P79383 whole entry): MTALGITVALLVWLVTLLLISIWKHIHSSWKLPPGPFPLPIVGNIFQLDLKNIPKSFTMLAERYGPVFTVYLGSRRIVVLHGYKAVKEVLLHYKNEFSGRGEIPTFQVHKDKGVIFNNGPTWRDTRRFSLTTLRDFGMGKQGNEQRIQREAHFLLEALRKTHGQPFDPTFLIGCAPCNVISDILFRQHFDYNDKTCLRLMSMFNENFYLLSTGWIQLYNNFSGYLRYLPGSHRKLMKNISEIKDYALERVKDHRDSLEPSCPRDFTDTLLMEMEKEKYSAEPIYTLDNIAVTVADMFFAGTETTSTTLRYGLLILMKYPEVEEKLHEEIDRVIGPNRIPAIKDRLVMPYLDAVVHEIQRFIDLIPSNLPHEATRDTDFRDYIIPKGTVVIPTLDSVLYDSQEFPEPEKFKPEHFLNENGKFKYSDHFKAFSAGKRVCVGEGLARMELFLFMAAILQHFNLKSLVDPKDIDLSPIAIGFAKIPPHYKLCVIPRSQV
Experimental: as §1, §2, §3, §4, §5

porcine CYP2A = conditions: 16 μM compound; hepatic microsomes from male and female pigs; 200 μM coumarin
Experimental: as §1
Specific CYP450 activities were determined by incubating microsomes (diluted in 0.5 M potassium phosphate buffer (pH 7.4)) and adding 0.5 mM NADPH together with one of the following selective substrates (specific CYP450 target given in parentheses): 2 μM 7-ethoxyresorufin (CYP1A), 200 μM coumarin (CYP2A), 10 μM 7-benzyloxy-4-trifluoromethylcoumarin (CYP3A), and 200 μM p-nitrophenol (CYP2E1). For kinetic studies, concentrations of 7-ethoxyresorufin varied from 0.05 to 4 μM, concentrations of p-nitrophenol varied from 2.5 to 4000 μM, and concentrations of BFC varied from 0.1 to 150 μM. The corresponding metabolites were quantified by HPLC as previously described.
as §3

[1] = hepatic microsomes from male and female pigs, 200 μM p-nitrophenol
[2] = pig, pH 7.4, hepatic microsomes from female pigs
[3] = pig, pH 7.4, hepatic microsomes from male pigs
[4] = hepatic microsomes from female pigs

Row | Structure (SMILES) | effect on CYP1A activity (porcine CYP1A) | effect on CYP3A activity (porcine CYP3A) | effect on CYP2E1 activity (porcine CYP2E1; [1]) | effect on CYP2A activity (porcine CYP2A) | also measured
1 | C[C@@H]1O[C@@H](OC[C@H]2O[C@@H](Oc3c(-c4ccc(O)c(O)c4)oc4cc(O)cc(O)c4c3=O)[C@H](O)[C@@H](O)[C@@H]2O)[C@H](O)[C@H](O)[C@H]1O [rutin] | did not alter activity | did not alter activity | did not alter activity | did not alter activity | 
2 | O=c1c(O)c(-c2cc(O)c(O)c(O)c2)oc2cc(O)cc(O)c12 [myricetin] |  | decreased | did not affect | did not affect | effect of a preincubation step on inhibition of CYP1A (porcine CYP1A): did not affect; Ki (porcine CYP1A; [2]): 4.4 ± 3.4 µM; Ki (porcine CYP1A; [3]): 2.5 ± 0.9 µM; reversibility of CYP3A inhibition (effect of a preincubation step) (porcine CYP3A): reversible inhibition; Ki (porcine CYP3A; liver microsomes, pH 7.4, probe 7-benzyloxy-4-trifluoromethylcoumarin (BFC), hepatic microsomes from male pigs): 113 ± 20.8 µM
3 | O=C(O)/C=C/c1ccc(O)cc1 [p-coumaric acid] | did not alter activity | did not alter activity | did not alter activity | did not alter activity | 
4 | O=c1c(O)c(-c2ccc(O)c(O)c2)oc2cc(O)cc(O)c12 [quercetin] |  | did not affect |  |  | mode of inhibition of CYP1A (porcine CYP1A; [4]): irreversible inhibition; IC50 (porcine CYP1A; pig, liver microsomes, pH 7.4, probe 7-ethoxyresorufin (2 μM), hepatic microsomes from female pigs, with 5 min preincubation with NADPH): 2.5 µM; Ki (porcine CYP1A; pig, liver microsomes, pH 7.4, probe 7-ethoxyresorufin (0.1-4 μM; O-deethylation), hepatic microsomes from male pigs): 0.16 ± 0.03 µM; effect on CYP2E1 activity (porcine CYP2E1; [4]): No effect; reversibility of CYP2E1 inhibition (effect of a preincubation step) (porcine CYP2E1; 15 min preincubation with NADPH at 37°C, male pigs): reversible inhibition; Ki (porcine CYP2E1; hepatic microsomes from male pigs, inhibitor 16, 32, 128 μM, p-nitrophenol 0.25-4000 μM): 94.2 ± 13.5 µM
5 | O=C(O)/C=C/c1ccc(O)c(O)c1 [caffeic acid] | did not alter activity | did not alter activity | did not alter activity | did not alter activity | 
6 | COc1cc(-c2oc3cc(O)cc(O)c3c(=O)c2O)ccc1O [isorhamnetin] |  | decreased | did not affect | did not affect | effect of a preincubation step on inhibition of CYP1A (porcine CYP1A): did not affect; Ki (porcine CYP1A; [2]): 10.8 ± 2.8 µM; Ki (porcine CYP1A; [3]): 99.9 ± 77.6 µM; reversibility of CYP3A inhibition (effect of a preincubation step) (porcine CYP3A): reversible inhibition; Ki (porcine CYP3A; pH 7.4, hepatic microsomes from female pigs): 93.7 ± 61.3 µM; Ki (porcine CYP3A; pH 7.4, hepatic microsomes from male pigs): 71.2 ± 20.2 µM
7 | O=C(O)c1cc(O)c(O)c(O)c1 [gallic acid] |  | did not alter activity | did not alter activity |  | 
